# Assays:
# PC12 cells = assay: Cell viability / proliferation of PC12 cells (Myc independent); assay type: cell-based
# Experimental: (§1) Proliferation Assay (FIG. 11). PC3 prostate cancer cell line with high Myc level and PC12 pheochromocytoma tumor cell line with non functional Max protein, which is not dependent on Myc-Max complex, were phased from ATCC. Cells were plated in 96 well plate at 1000 cells per well, and Myc inhibitor 361 at various concentrations was added to the cells next day. After 3 days of treatment, fresh medium with 361 were added again, and cell viability was measured by MTS assay at day 5 after the treatment. (See FIG. 11).
# MycCap cells = assay: Cell viability of MycCap cells; assay type: cell-based
# [1] = tested on: PC3 prostate cancer cell line; assay: Proliferation assay (MTS), PC3 prostate cancer cell line; assay type: cell-based; conditions: day 5
# Experimental: as §1
# [2] = tested on: MYC transcriptional activity; assay: MYC E-Box luciferase reporter assay; assay type: cell-based; conditions: MycCap Ebox-luc, 4 hours of treatment
# Experimental: To test the compounds, we evaluated the in silico hits in a MYC E-Box luciferase reporter assay to measure the effects of these compounds (referred to as Min-1 to Min-32) on MYC transcriptional activity. […] (See FIG. 2).
# Myc Ebox luciferase reporter assay (FIG. 12). MycCap cells stably expressing luciferase with CMV promoter (MycCap-luc) or c-Myc E-box-luciferase reporter (MycCap Ebox-luc) were plated at 10000 cells per well in 96 well white-wall plate. Serial dilutions of 361 were treated next day. At 4 hours of treatment, luminescence signal was determined immediately after adding 150 μg/ml of Luciferin to the well. (See FIG. 12).
# MycCap tumor [3] = assay: MycCap FVB allograft model, combination with anti-PD-1 immunotherapy; assay type: in vivo, mouse; conditions: combination with Immunotherapy (anti-PD-1 antibody)
# Experimental: Myc inhibitor 361 combination with Immunotherapy (FIG. 16). MycCap FVB allograft model was treated with 361 (50 mg/kg) for two days, following by two days of anti-PD-1 antibody (100 ug/day), and kept this 4-day treatment cycle for 4 cycles. (See FIG. 16).
# MycCap tumor [4] = assay: MycCap FVB allograft model; assay type: in vivo; conditions: mouse prostate cancer allograft model, intra-peritoneally
# Experimental: MycCap FVB allograft model (FIG. 15). FVB mice were inoculated with 1×10^6 of MycCap cells in 100 ul of matrigel subcutaneously on both flanks of the mice. When tumor size reached average size of 150 mm^3, mice were randomized based on tumor volume to 2 groups. Mice were administered with 50 mg/kg of 361 or vehicle (Veh) twice daily intra-peritoneally for two days. The treatment was suspended for 10 day, and initiated the treatment with a lower dose […] daily for another 9 days. Tumor size was measured twice a week during the experiment. (See FIG. 15).
# [5] = In vitro metabolism, mouse S9 fraction; assay type: in vitro ADME
# Experimental: In vitro metabolism of NUCC-176242 and NUCC-176248 were tested using mouse liver microsomes and a mouse S9 fraction. (See FIG. 9).
# MV411 cells = assay: AML xenograft model (MV411), combination with Ara-C; assay type: in vivo, mouse; conditions: AML mice xenograft model
# Experimental: Myc inhibitor combination treatment with Ara-C in AML xenograft model (FIG. 17). CB17 SCID mice were inoculated with MV411 cells at the density of 5×10^6 suspended in PBS and matrigel (1:1). The mice were randomized based on tumor volume into 6 different groups after the tumor reached ˜200 to 500 mm^3. The mice were treated either with vehicle, NUO31, NU975 alone or in combination with cytarabine (Ara-C). […] (See FIG. 17).
# [6] = tested on: wild type and MYC knockout rat fibroblasts; assay: Growth inhibition of MYC wild type versus MYC knockout rat fibroblasts; assay type: cell-based
# Description: We tested the top 13 active compounds in the first screen assay. […] More than half of the tested compounds show better growth inhibitory effect on MYC WT compared to MYC KO cells.
# DNA damage = assay: rH2AX staining assay for DNA damage; assay type: cell-based
# Experimental: Min9 (NUCC-0176234) was also tested for its ability to cause DNA damage in an rH2AX staining assay. We would not expect cMYC-targeting agents to produce significant DNA damage. Compounds that act directly against DNA such as doxorubicin do however. […] (See FIG. 6).
# MYC/Max binding to DNA = MYC/Max binding to DNA (Homo sapiens, UniProt P01106); assay: Electrophoretic mobility shift assay (EMSA), MYC/Max binding to DNA
# Sequence of MYC/Max binding to DNA (P01106 whole entry): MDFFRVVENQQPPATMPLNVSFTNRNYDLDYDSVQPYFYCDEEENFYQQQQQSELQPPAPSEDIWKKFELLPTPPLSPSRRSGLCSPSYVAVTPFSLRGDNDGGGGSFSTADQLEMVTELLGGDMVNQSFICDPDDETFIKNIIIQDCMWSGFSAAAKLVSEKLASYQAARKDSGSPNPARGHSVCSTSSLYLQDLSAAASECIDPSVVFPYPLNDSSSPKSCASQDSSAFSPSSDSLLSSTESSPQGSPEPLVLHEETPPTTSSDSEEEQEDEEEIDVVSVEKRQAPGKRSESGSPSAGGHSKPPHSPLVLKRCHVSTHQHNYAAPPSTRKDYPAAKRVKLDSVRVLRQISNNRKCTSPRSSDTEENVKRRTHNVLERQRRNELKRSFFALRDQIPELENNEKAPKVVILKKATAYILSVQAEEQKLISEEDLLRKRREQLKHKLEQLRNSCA
# Experimental: We also tested our best hit compound Min9 (NUCC-0176234) and newly synthesized analogs for effects of these compounds on MYC/Max binding to DNA in electrophoretic mobility shift assays (EMSAs). (See FIG. 5a and FIG. 5b). We expected the active compounds to impair MYC/Max binding to DNA. Several strucutural analogs of Min9 were tested over multiple doses for inhibiting MYC-DNA binding and we observed a dose-dependent inhibition. (See FIG. 5c).
# [7] = tested on: cMYC wild-type (WT) and cMYC KO line; assay: Cell viability, cMYC wild-type (WT) versus cMYC KO line; assay type: cell-based; conditions: cMYC WT vs cMYC KO line
# Experimental: Min9 (NUCC-0176234) was also tested in a cell viability assay against a cMYC wild-type (WT) and a cMYC KO line.
structure (smiles),measurement,setting,value
CNC(=O)c1cc(-c2ccc(OCc3ccc(Cl)cc3)c(-c3cc(C(F)(F)F)cc(C(F)(F)F)c3)c2O)nn1C [NUCC-0201224],IC50,PC12 cells,11.6 µM
same,IC50,MycCap cells,1.1 µM
Cn1nc(C(F)(F)F)cc1-c1ccc(OCc2ccc(Cl)cc2)c(-c2cc(C(F)(F)F)cc(C(F)(F)F)c2)c1O [compound 361],proliferation of Myc dependent cell line PC3,[1],specifically inhibits proliferation
same,c-Myc transcription activity,[2],inhibits c-Myc transcription activity as an early event before affecting cell viability
same,tumor progression,MycCap tumor [3],significantly blocks tumor progression
same,tumor volume,MycCap tumor [4],reduces tumor volume
CCc1ccc(Oc2c(-c3ccc(OCc4ccc(Cl)cc4)cc3O)n[nH]c2C(F)(F)F)cc1 [NUCC-0176242],metabolism by mouse S9 fraction,[5],significantly metabolism by the mouse S9 fraction versus NUCC-176248
CCCCOc1ccc(-c2cc(C(F)(F)F)n[nH]2)c(O)c1-c1cc(C(F)(F)F)cc(C(F)(F)F)c1 [compound 031],anti-tumor effect with Ara-C,MV411 cells,significant synergic anti-tumor effect
CCc1ccc(Oc2c(-c3ccc(OCc4ccc(Cl)cc4)cc3O)nn(C)c2C(F)(F)F)cc1 [NUCC-0176248],"selectivity of growth inhibition, MYC WT compared to MYC KO cells",[6],high specificity
CCc1ccc(Oc2c[nH]nc2-c2ccc(OCc3cnn(-c4ccccc4)c3)cc2O)cc1 [NUCC-0176234],DNA damage,DNA damage,essentially no DNA damage
same,inhibition of MYC/Max binding to DNA (in words),MYC/Max binding to DNA,prevent c-MYC/DNA binding
same,"cell viability, WT line versus KO cells",[7],reduces cell viability much more in the WT line than the KO cells
Cn1nc(C(F)(F)F)cc1-c1ccc(OCc2ccc(Cl)cc2)c(-c2ccc(Cl)c(C(F)(F)F)c2)c1O [compound 975],anti-tumor effect with Ara-C,MV411 cells,significant synergic anti-tumor effect
